Laboratory results taken from patent US10899738B2 (THE REGENTS OF THE UNIVERSITY OF MICHIGAN, priority 2016, dated 2021).
Where two headings read alike, the source gives them in different places.

Assays:
menin protein = menin protein (Homo sapiens (Human), UniProt O00255); test: biochemical; format: binding; details: FP competitive binding; menin protein 4 nM, FAM-MM2 probe 2 nM; read-out: Menin Binding Affinity IC50
In short: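 Test compounds displaced FAM-MM2 (2 nM) from 4 nM menin after 30 min equilibration at room temperature in PBS buffer containing bovine γ-globulin, 4% DMSO and Triton X-100. Binding was followed by fluorescence polarization. Competition curves were fitted by nonlinear regression to give IC50 and Ki.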

[1] = Cell growth inhibition, CellTiter-Glo Luminescent Cell Viability Assay; format: cell-based
Protocol: Cell growth inhibitory activity of representative menin inhibitors was determined using CellTiter-Glo® Luminescent Cell Viability Assay. Cells were seeded in 384-well white opaque cell culture plates at a density of 2,000 cells/well with serially diluted compounds and incubated at 37° C. in an atmosphere of 95% air and 5% CO2 for 4 days. Cell viability was determined using the CellTiter-Glo® Luminescent Cell Viability Assay Kit (Promega, Madison, Wis.) according to the manufacture's instruction. Briefly, a volume of CellTiter-Glo® Reagent equal to the volume of cell culture medium was added to each well, and then the plates were incubated at room temperature for 10-20 minutes. The luminescent signal was measured using a Tecan Infinite M1000 multimode microplate reader (Tecan, Morrisville, N.C.). The half maximal inhibitory concentration (IC50) was calculated using the GraphPad Prism 5 software (GraphPad Software, La Jolla, Calif.).

[2] = MOLM-13, 96 h, MOLM13 cells, 4 days, CellTiter-Glo, read-out: Cell Growth Inhibition IC50 (μM) MOLM13
[3] = MV4-11, 96 h, MV4, 11 cells, 4 days, CellTiter-Glo, read-out: Cell Growth Inhibition IC50 (μM) MV4, 11
[4] = MOLM-13, 96 h, read-out: Cell Growth Inhibition IC50 (μM) MOLM13, MOLM13 cells, 4 days, CellTiter-Glo
[5] = MV4-11, 96 h, read-out: Cell Growth Inhibition IC50 (μM) MV4, 11, MV4, 11 cells, 4 days, CellTiter-Glo

Sequence of menin protein (O00255 whole entry): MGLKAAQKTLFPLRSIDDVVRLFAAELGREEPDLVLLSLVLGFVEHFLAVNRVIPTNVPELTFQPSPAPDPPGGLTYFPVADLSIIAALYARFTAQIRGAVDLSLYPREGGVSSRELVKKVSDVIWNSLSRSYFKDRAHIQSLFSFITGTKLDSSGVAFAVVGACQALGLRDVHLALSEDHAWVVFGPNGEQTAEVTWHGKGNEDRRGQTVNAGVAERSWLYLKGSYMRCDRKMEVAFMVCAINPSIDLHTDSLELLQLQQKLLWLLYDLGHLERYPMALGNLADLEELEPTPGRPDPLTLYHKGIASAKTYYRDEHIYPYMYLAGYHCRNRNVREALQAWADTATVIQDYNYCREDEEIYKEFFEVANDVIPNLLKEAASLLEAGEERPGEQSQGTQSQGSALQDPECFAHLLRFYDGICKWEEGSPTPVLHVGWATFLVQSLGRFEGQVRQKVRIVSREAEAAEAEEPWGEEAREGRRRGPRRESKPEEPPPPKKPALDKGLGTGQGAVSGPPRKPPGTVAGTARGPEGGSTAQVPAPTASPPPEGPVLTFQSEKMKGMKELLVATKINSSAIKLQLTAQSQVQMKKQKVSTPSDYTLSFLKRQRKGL

SMILES | IC50 (menin protein) | IC50 [1, 2] | IC50 [1, 3] | IC50 [1, 4] | IC50 [1, 5] | further results
O=S(=O)(c1ccncc1)c1ccc(N2CC(CN3CCC(C4(C5CCCC5)NCCc5ccccc54)CC3)C2)cc1 (centres unmarked) [compound 151, 1-cyclopentyl-1-(1-((1-(4-(pyridin-4-ylsulfonyl)phenyl)azetidin-3-yl)methyl)piperidin-4-yl)-1,2,3,4-tetrahydroisoquinoline] | 15 nM | 0.627 µM | 1.3 µM |  |  | 
CNC(=O)N[C@H]1CCC[C@@H]1C1(C2CCN(CC3CN(c4ccc(S(=O)(=O)c5cnn(C)c5)cc4)C3)CC2)CN(C)Cc2ccccc21 (mixture of isomers) [compound 284, rac-1-methyl-3-((1S,2R)-2-(2-methyl-4-(1-((1-(4-((1-methyl-1H-pyrazol-4-yl)sulfonyl)phenyl)azetidin-3-yl)methyl)piperidin-4-yl)-1,2,3,4-tetrahydroisoquinolin-4-yl)cyclopentyl)urea] | 11 nM |  |  | > 10 µM | 2.59 µM | 
CC(=O)O[C@H]1CCC[C@@H]1C1(C2CCN(CC3CN(c4ccc(S(=O)(=O)c5ccnc(C)c5)cc4)C3)CC2)CN(C)Cc2ccccc21 (mixture of isomers) [compound 201, rac-(1S,2R)-2-(2-methyl-4-(1-((1-(4-((2-methylpyridin-4-yl)sulfonyl)phenyl)azetidin-3-yl)methyl)piperidin-4-yl)-1,2,3,4-tetrahydroisoquinolin-4-yl)cyclopentyl acetate] | 5 nM |  |  | 0.399 ± 0.153 µM | 0.09 ± 0.051 µM | 
O=S(=O)(CC1CCC1)c1ccc(N2CC(CN3CCC(C4(C5CCCC5)NCCc5ccccc54)CC3)C2)cc1 (centres unmarked) [compound 86, 1-(1-((1-(4-((cyclobutylmethyl)sulfonyl)phenyl)azetidin-3-yl)methyl)piperidin-4-yl)-1-cyclopentyl-1,2,3,4-tetrahydroisoquinoline] | 55 nM | 1.2 ± 0.5 µM | 0.864 ± 0.017 µM |  |  | 
O=S(=O)(CC1CCCC1)c1ccc(N2CC(CN3CCC(C4(C5CCCC5)NCCc5ccccc54)CC3)C2)cc1 (centres unmarked) [compound 91, 1-cyclopentyl-1-(1-((1-(4-((cyclopentylmethyl)sulfonyl)phenyl)azetidin-3-yl)methyl)piperidin-4-yl)-1,2,3,4-tetrahydroisoquinoline] | 42 nM | 1.7 ± 0.004 µM | 1.3 ± 0.3 µM |  |  | 
CCN1Cc2ccccc2C(C2CCCC2)(C2CCN(CC3CN(c4ccc(S(=O)(=O)C5CC5)cc4)C3)CC2)C1 (centres unmarked) [compound 137, 4-cyclopentyl-4-(1-((1-(4-(cyclopropylsulfonyl)phenyl)azetidin-3-yl)methyl)piperidin-4-yl)-2-ethyl-1,2,3,4-tetrahydroisoquinoline] | 8 nM | 1.9 ± 0.7 µM | 1 ± 0.2 µM |  |  | 
CN(C)C(=O)N[C@H]1CCC[C@@H]1C(Cn1ccnc1)(c1ccccc1)C1CCN(CC2CN(c3ccc(S(=O)(=O)c4cnn(C)c4)cc3)C2)CC1 (mixture of isomers) [compound 376, rac-3-((1S,2R)-2-(2-(1H-imidazol-1-yl)-1-(1-((1-(4-((1-methyl-1H-pyrazol-4-yl)sulfonyl)phenyl)azetidin-3-yl)methyl)piperidin-4-yl)-1-phenylethyl)cyclopentyl)-1,1-dimethylurea] | 6 nM |  |  | > 10 µM | 10.5 ± 2.08 µM | 
CCN1Cc2ccccc2C(C2CCCC2)(C2CCN(CC3(F)CN(c4ccc(S(=O)(=O)C5CC5)cc4)C3)CC2)C1 (centres unmarked) [compound 141, 4-cyclopentyl-4-(1-((1-(4-(cyclopropylsulfonyl)phenyl)-3-fluoroazetidin-3-yl)methyl)piperidin-4-yl)-2-ethyl-1,2,3,4-tetrahy36droisoquinoline] | 28 nM | 54.7 µM | 4.7 µM |  |  | 
CNC(=O)N[C@H]1CCC[C@@H]1C(C#N)(c1ccccc1)C1CCN(CC2CN(c3ccc(S(=O)(=O)c4ccncc4)cc3)C2)CC1 (mixture of isomers) [compound 269, rac-1-((1S,2R)-2-(cyano(phenyl)(1-((1-(4-(pyridin-4-ylsulfonyl)phenyl)azetidin-3-yl)methyl)piperidin-4-yl)methyl)cyclopentyl)-3-methylurea] | 9 nM |  |  | 1.73 µM | 0.273 µM | 
N#Cc1ccc(N2CCC(CN3CCC(C4(C5CCCC5)NCCc5ccccc54)CC3)C2)cc1 (centres unmarked) [compound 113, 4-(3-((4-(1-cyclopentyl-1,2,3,4-tetrahydroisoquinolin-1-yl)piperidin-1-yl)methyl)pyrrolidin-1-yl)benzonitrile] | 67 nM | 2.4 µM | 1.6 µM |  |  | 
CNC(=O)O[C@@H]1CCC[C@H]1C(Cn1ccnc1C)(c1cccc(F)c1)C1CCN(CC2CN(c3ccc(S(=O)(=O)c4cnn(C)c4)cc3)C2)CC1 (mixture of isomers) [compound 410, rac-(1R,2S)-2-(1-(3-fluorophenyl)-2-(2-methyl-1H-imidazol-1-yl)-1-(1-((1-(4-((1-methyl-1H-pyrazol-4-yl)sulfonyl)phenyl)azetidin-3-yl)methyl)piperidin-4-yl)ethyl)cyclopentyl methylcarbamate] | 49 nM |  |  | 3.1 µM | 2.7 µM | 
COC(=O)N[C@H]1CCC[C@@H]1C(C#N)(c1ccccc1)C1CCN(CC2CN(c3ccc(C#N)cc3)C2)CC1 (mixture of isomers) [compound 400, methyl rac-((1S,2R)-2-(cyano(1-((1-(4-cyanophenyl)azetidin-3-yl)methyl)piperidin-4-yl)(phenyl)methyl)cyclopentyl) carbamate] |  | 6.11 µM | 0.83 µM |  |  | 
COC(=O)N[C@H]1CCC[C@@H]1[C@](C#N)(c1ccccc1)C1CCN(CC2CN(c3ccc(S(=O)(=O)C(F)(F)F)cc3)C2)CC1 [Cpd. No. 403, methyl ((1S,2R)-2-((S)-cyano(phenyl)(1-((1-(4-((trifluoromethyl)sulfonyl)phenyl)azetidin-3-yl)methyl)piperidin-4-yl)methyl)cyclopentyl)carbamate] |  |  |  | 1.3 µM | 0.19 µM | 
N#Cc1ccc(OCCCN2CCC(C3(C4CCCC4)NCCc4ccccc43)CC2)cc1 (centres unmarked) [compound 27, 4-(3-(4-(1-cyclopentyl-1,2,3,4-tetrahydroisoquinolin-1-yl)piperidin-1-yl)propoxy)benzonitrile] |  |  |  |  |  | IC50 ([1]; MOLM-13, 96 h, read-out: Cell Growth Inhibition IC50 (μM) MOLM13): 3.6 µM; IC50 ([1]; MV4-11, 96 h, read-out: Cell Growth Inhibition IC50 (μM) MV4, 11): 0.9 µM
COC(=O)N[C@H]1CCC[C@@H]1C(C#N)(c1ccccc1)C1CCN(CC2CN(c3ccc(S(=O)(=O)C(F)(F)F)cc3)C2)CC1 (mixture of isomers) [compound 393, methyl rac-((1S,2R)-2-(cyano(phenyl)(1-((1-(4-((trifluoromethyl)sulfonyl)phenyl)azetidin-3-yl)methyl)piperidin-4-yl)methyl)cyclopentyl) carbamate] |  |  |  | 0.88 µM | 0.25 µM | 
CC(=O)O[C@H]1CCC[C@@H]1C(C#N)(c1ccccc1)C1CCN(CC2CN(c3ccc(S(C)(=O)=O)cc3)C2)CC1 (mixture of isomers) [compound 183, rac-(1S,2R)-2-(cyano(1-((1-(4-(methylsulfonyl)phenyl)azetidin-3-yl)methyl)piperidin-4-yl)(phenyl)methyl)cyclopentyl acetate] | 73 nM |  |  |  |  | 
CC1CN(CCCOc2ccc(C#N)cc2)CCC1C(C#N)(c1ccccc1)C1CCCC1 (centres unmarked) [compound 120, 4-(3-(4-(cyano(cyclopentyl)(phenyl)methyl)-3-methylpiperidin-1-yl)propoxy)benzonitrile] | 5700 nM |  |  |  |  | 
CCC(CC)C(=O)N1CCCCC1C1(C2CCN(CCCOc3ccc(C#N)cc3)CC2)CN(C)Cc2ccccc21 (centres unmarked) [compound 301, 4-(3-(4-(4-(1-(2-ethylbutanoyl)piperidin-2-yl)-2-methyl-1,2,3,4-tetrahydroisoquinolin-4-yl)piperidin-1-yl)propoxy)benzonitrile] | 34800 nM |  |  |  |  | 
